Data as given in paper PMC8040286 (iScience, 2021).
Read-outs that look alike come from different tables or passages of the source.

Legend:
[1] = test system: GFP-expressing T. cruzi (Y) trypomastigotes released from infected CHO cells; assay: microbe, parasite or virus in culture; format: cell-based, Trypanosoma cruzi; settings: for inhibition at 5 µM: read-out: Percentage inhibition of parasite release at 5 μM (low ROS)
[2] = test system: T. cruzi epimastigotes (Y strain); assay: microbe, parasite or virus in culture; format: cell-based, Trypanosoma cruzi; settings: for IC50: Trypanosoma cruzi, 72 h, read-out: IC50 epimastigotes; for Selectivity Index (CC50 CHO/IC50 Epi): CC50 CHO / IC50 epimastigotes
[3] = Cytotoxicity/antiproliferative MTT assay in CHO host cells; format: cell-based, hamster; settings: Chinese hamster, CHO-K1 cells
CHO-K1 cells = assay: as above; format: cell-based, hamster; settings: read-out: CC50 CHO cells; 72-hr incubation; anthraquinones (Table 5)
[4] = test system: T. cruzi parasite release from trypomastigote-infected CHO cells; assay: microbe, parasite or virus in culture; format: cell-based; settings: Trypanosoma cruzi; for IC50: read-out: IC50 inhibition of parasite release, serum-free conditions (high ROS), serum-free host cell culture as used in the screening
casein kinase 1 = settings: read-out: IC50 casein kinase 1; ref Justiniano et al., 2014; cited from earlier work
[5] = rodents; ref Li et al., 2020; cited from earlier work
[6] = CC50 CHO cells, 72-hr incubation, anthraquinones (Table 5)
[7] = Cytotoxicity CC50 CHO cells without FBS, 72 hr, without FBS
[8] = Cytotoxicity CC50 CHO cells, 72 hr (Table 3)
[9] = read-out: Percentage inhibition of parasite release (serum-free) at 5 μM, 5 μM, serum-free, 6 dpi, CHO host cells
[10] = read-out: IC50 inhibition of parasite release, 0.5% hiFBS (low ROS), 0.5% hiFBS, low ROS, GFP-expressing trypomastigotes, 6 dpi

SMILES	inhibition at 5 µM ([1]; Trypanosoma cruzi, CHO)	IC50 [2]	CC50 at 72 h [3, 6]	further results
CC(=O)Oc1cccc2c1C(=O)c1c(OC(C)=O)cc(C(=O)O)cc1C2=O [compound 16, Diacerein]	0%	> 50 µM	–	–
Cc1cc(O)c2c(c1)C(=O)c1cccc(O)c1C2=O [compound 10, Chrysophanol]	22.6 ± 17.2%	6.6 ± 3.5 µM	35.7 ± 7.4 µM	Selectivity Index (CC50 CHO/IC50 Epi) [2]: 5.4
O=C1c2cccc(O)c2C(=O)c2c(O)cccc21 [compound 8, Dantron]	0%	5.3 ± 2.3 µM	–	–
Cc1c(O)ccc2c1C(=O)c1ccccc1C2=O [compound 14, 2-Hydroxy-1-methylanthraquinone]	20.9 ± 9.7%	> 50 µM	88.9 ± 8.9 µM	–
O=C1c2cccc(O)c2C(=O)c2c(O)cc(CO)cc21 [compound 11, Aloe-emodin]	44 ± 17.6%	14.5 ± 5.6 µM	42 ± 15.5 µM	Selectivity Index (CC50 CHO/IC50 Epi) [2]: 2.9
O=C(O)c1cc(O)c2c(c1)C(=O)c1cccc(O)c1C2=O [compound 15, Rhein]	0%	> 50 µM	–	–
Cc1cc2c(cc1O)C(=O)c1ccccc1C2=O [compound 13, 2-Hydroxy-3-methylanthraquinone]	0%	> 50 µM	–	–
O=C1c2ccccc2C(=O)c2c(O)ccc(O)c21 [compound 6, Quinizarin]	68.5 ± 19.2%	> 50 µM	38 ± 16 µM	CC50 (CHO-K1 cells): 38.1 ± 16 µM; Selectivity Index (CC50 CHO/IC50 Epi) [2]: <1
COc1cc(O)c2c(c1)C(=O)c1cc(C)cc(O)c1C2=O [compound 12, Physcion]	0%	6.4 ± 3.7 µM	–	–
O=C1c2ccc(O)cc2C(=O)c2ccc(O)cc21 [compound 9, Anthraflavic acid]	0%	> 50 µM	–	–
O=C1c2cccc(O)c2C(=O)c2cccc(O)c21 [compound 7, Anthrarufin]	0%	> 50 µM	–	–
O=C1c2ccccc2C(=O)c2ccccc21 [compound 1, Anthraquinone]	22.2 ± 9.6%	> 50 µM	–	CC50 at 72 h [3]: > 100 µM
C=C1[C@@H]2[C@H]3OC(=O)C(=C)[C@@H]3CCC(=C)[C@@H]2C[C@@H]1O [Zaluzanin C]	–	6.7 ± 0.7 µM	–	CC50 at 72 h [3, 7]: 19.2 ± 5.2 µM; CC50 at 72 h [3, 8]: 6.6 ± 1.7 µM; inhibition at 5 µM [4, 9]: 71 ± 7.5%
C=C[C@@H](O)C#CC#C[C@@H](O)/C=C\CCCCCCC [Falcarindiol]	–	> 50 µM	–	CC50 at 72 h [3]: > 100 µM; inhibition at 5 µM ([4]; read-out: Percentage inhibition of parasite release (serum-free) at 5 μM): 0%
O=C1c2ccccc2C(=O)c2c(O)c(O)cc(O)c21 [compound 3, Purpurin]	48.3 ± 18.1%	> 50 µM	59.5 ± 10.1 µM	selectivity index (parasite release) ([1]; basis not stated, discussion): 7
O=C(Cn1ccnc1[N+](=O)[O-])NCc1ccccc1 [BZN, benznidazole, reference compound]	84.9 ± 4.8%	13.8 ± 2.9 µM	> 100 µM	IC50 [1, 10]: 1.4 µM; CC50 at 72 h [3, 8]: > 100 µM; IC50 [4]: 5000 to 9000 nM; Selectivity Index (CC50 CHO/IC50 Epi) [2]: >7
COc1cc(N)c2c(c1N)C(=O)c1ccccc1C2=O [compound 17, Disperse Red11]	46.8 ± 25.6%	32.9 ± 13.9 µM	> 100 µM	Selectivity Index (CC50 CHO/IC50 Epi) [2]: >3
COc1c(O)cc2c(c1O)C(=O)c1c(cc(C)c(O)c1OC)C2=O [compound 18, Aurantio-obtusin]	0%	> 50 µM	–	–
CC(=O)c1c(C)cc2cccc(O)c2c1O [Nepodin]	–	28.7 ± 13.3 µM	–	CC50 at 72 h [3, 8]: > 100 µM; inhibition at 5 µM [4, 9]: ~30%
C=C1C(=O)O[C@@H]2/C=C(\C)CC/C=C(\C)CC[C@@H]12 [Costunolide, (6R, 7S)-costunolide]	–	7.4 ± 5.9 µM	–	CC50 at 72 h [3, 7]: 35.4 ± 13.8 µM; CC50 at 72 h [3, 8]: 10.9 ± 3.7 µM; inhibition at 5 µM [4, 9]: 0%
C=C1CC[C@H]2C(=C)CC[C@H]3C(=C)C(=O)O[C@@H]3[C@@H]12 [Dehydrocostus lactone]	–	1.4 ± 0.4 µM	–	CC50 at 72 h [3, 7]: 12.2 ± 0.5 µM; CC50 at 72 h [3, 8]: 5.8 ± 1.9 µM; inhibition at 5 µM [4, 9]: 86.2 ± 4.1%
O=C1c2ccccc2C(=O)c2c1cc(S(=O)(=O)O)c(O)c2O [compound 5, Alizarin Red S]	0%	> 50 µM	–	–
Cc1cc(O)c2c(c1)C(=O)c1cc(O)cc(O)c1C2=O [compound 2, Emodin]	24.8 ± 12.9%	14.1 ± 8.2 µM	> 100 µM	IC50 (casein kinase 1): 130 µM; IC50 ([1]; Trypanosoma cruzi, CHO, read-out: IC50 inhibition of parasite release, 0.5% hiFBS (low ROS), 0.5% hiFBS, low ROS, GFP-expressing trypomastigotes, 6 dpi): 9.52 µM; IC50 [1, 10]: 9.5 µM; CC50 at 72 h [3, 8]: > 100 µM; IC50 [4]: 720 nM; inhibition at 5 µM [4, 9]: 61.5 ± 18.2%; oral bioavailability [5]: 5–10%; Selectivity Index (CC50 CHO/IC50 Epi) [2]: >7
O=C1c2ccccc2C(=O)c2c1ccc(O)c2O [compound 4, Alizarin]	0%	> 50 µM	–	–
